Results reported in PMC10010643 (Cancer Chemotherapy and Pharmacology, 2023).
“And” between values parts separate entries of the source, which are not always exact repeats. Equal values may be shown once.

Key:
[1] = Safety and tolerability, Part B multiple ascending-dose phase in healthy participants; assay type: in vivo, human
Procedure: Following review of safety, tolerability, and PK data from cohorts A1–A6, participants received twice-daily doses (BID) under fasted conditions on days 1–9 and a final single dose in the morning of day 10. […] There was one treatment period and all participants stayed at the CRU from day − 1 until the morning of day 11 (24 h after the final dose on day 10). All were to return for a follow-up visit 5–7 days after their final dose.
Safety and tolerability assessments included adverse event (AE) monitoring, physical examinations, laboratory assessments (hematology, clinical chemistry, and urinalysis), vital signs (blood pressure, pulse rate, and body temperature) and ECG.
No formal statistical assessment was performed for the safety analysis.

[2] = tested on: lung fibrosis; design: method as in PMID 36154172; details: bleomycin-induced; cited from earlier work

SMILES: OC[C@H]1O[C@H](Sc2cncc(Br)c2)[C@H](O)[C@@H](n2cc(-c3cc(F)c(F)c(F)c3)nn2)[C@H]1O [GB1211]
- TEAE Limb injury, participants ([1]; 50 mg BID): 1 (12.5%) n (%)
- TEAE Menstruation irregular, no. of AEs ([1]; 50 mg BID): 1
- TEAE Menstruation irregular, participants ([1]; 50 mg BID): 1 (12.5%) n (%)
- TEAE Musculoskeletal and connective tissue disorders, participants ([1]; 50 mg BID): 0 n (%)
- TEAE Nervous system disorders, no. of AEs ([1]; 50 mg BID): 5
- TEAE Nervous system disorders, participants ([1]; 50 mg BID): 4 (50.0%) n (%)
- TEAE Pain in extremity, participants ([1]; 50 mg BID): 0 n (%)
- TEAE Pollakiuria, participants ([1]; 50 mg BID): 0 n (%)
- TEAE Renal and urinary disorders, no. of AEs ([1]; 50 mg BID): 1
- TEAE Renal and urinary disorders, participants ([1]; 50 mg BID): 1 (12.5%) n (%)
- TEAE Reproductive system and breast disorders, no. of AEs ([1]; 50 mg BID): 1
- TEAE Reproductive system and breast disorders, participants ([1]; 50 mg BID): 1 (12.5%) n (%)
- Number of TEAEs considered moderate ([1]; 50 mg BID cohort): Two
- Number of TEAEs ([1]; 100 mg BID): 8
- Participants discontinued due to TEAEs ([1]; 100 mg BID): 0 n (%)
- Participants with SAEs ([1]; 100 mg BID): 0 n (%)
- Participants with TEAEs ([1]; 100 mg BID): 3 (37.5) n (%) and 3 (37.5%) n (%)
- Severity (all TEAEs): Mild ([1]; 100 mg BID): 3 (37.5) n (%)
- Severity (all TEAEs): Moderate ([1]; 100 mg BID): 0 n (%)
- Severity (all TEAEs): Severe ([1]; 100 mg BID): 0 n (%)
- Severity (all TEAEs): Total ([1]; 100 mg BID): 3 (37.5) n (%)
- Severity (possibly related to study treatment): Mild ([1]; 100 mg BID): 3 (37.5) n (%)
- Severity (possibly related to study treatment): Moderate ([1]; 100 mg BID): 0 n (%)
- Severity (possibly related to study treatment): Severe ([1]; 100 mg BID): 0 n (%)
- Severity (possibly related to study treatment): Total ([1]; 100 mg BID): 3 (37.5) n (%)
- TEAE Abdominal distension, no. of AEs ([1]; 100 mg BID): 1
- TEAE Abdominal distension, participants ([1]; 100 mg BID): 1 (12.5%) n (%)
- TEAE Abdominal pain upper, no. of AEs ([1]; 100 mg BID): 1
- TEAE Abdominal pain upper, participants ([1]; 100 mg BID): 1 (12.5%) n (%)
- TEAE Abdominal pain, participants ([1]; 100 mg BID): 0 n (%)
- TEAE Arthralgia, no. of AEs ([1]; 100 mg BID): 1
- TEAE Arthralgia, participants ([1]; 100 mg BID): 1 (12.5%) n (%)
- TEAE Constipation, no. of AEs ([1]; 100 mg BID): 2
- TEAE Constipation, participants ([1]; 100 mg BID): 2 (25.0%) n (%)
- TEAE Dysuria, participants ([1]; 100 mg BID): 0 n (%)
- TEAE Gastrointestinal disorders, no. of AEs ([1]; 100 mg BID): 4
- TEAE Gastrointestinal disorders, participants ([1]; 100 mg BID): 2 (25.0%) n (%)
- TEAE Headache, participants ([1]; 100 mg BID): 0 n (%)
- TEAE Injury, poisoning and procedural complications, participants ([1]; 100 mg BID): 0 n (%)
- TEAE Limb injury, participants ([1]; 100 mg BID): 0 n (%)
- TEAE Menstruation irregular, participants ([1]; 100 mg BID): 0 n (%)
- TEAE Musculoskeletal and connective tissue disorders, no. of AEs ([1]; 100 mg BID): 2
- TEAE Musculoskeletal and connective tissue disorders, participants ([1]; 100 mg BID): 1 (12.5%) n (%)
- TEAE Nervous system disorders, participants ([1]; 100 mg BID): 0 n (%)
- TEAE Pain in extremity, no. of AEs ([1]; 100 mg BID): 1
- TEAE Pain in extremity, participants ([1]; 100 mg BID): 1 (12.5%) n (%)
- TEAE Pollakiuria, no. of AEs ([1]; 100 mg BID): 2
- TEAE Pollakiuria, participants ([1]; 100 mg BID): 2 (25.0%) n (%)
- TEAE Renal and urinary disorders, no. of AEs ([1]; 100 mg BID): 2
- TEAE Renal and urinary disorders, participants ([1]; 100 mg BID): 2 (25.0%) n (%)
- TEAE Reproductive system and breast disorders, participants ([1]; 100 mg BID): 0 n (%)
- Participants with a TEAE possibly related to treatment, GB1211 ([1]; Part B): 7
- Number of TEAEs on GB1211 ([1]; Part B, all GB1211 doses): 16
- Participants with TEAEs on GB1211 ([1]; Part B, all GB1211 doses): 7
- Fibrosis in vivo, lung [2]: reducing fibrosis
